Key:
Assay in all cases: relative viability (nuclei count vs DMSO), 5 days (fraction); higher = more cells survive
[1] = compound: C1=CC2=C(C=C(C(=C2N=C1)O)N=NC3=CC4=C(C=C3)C=C(C=C4)S(=O)(=O)O)S(=O)(=O)O
Outline: (§1)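 Cells of lung cancer lines were placed in 1536-well plates and kept overnight at 37 °C. Pinning then delivered five library-drug doses (not always all listed), spaced by √10, onto plates anchored with vehicle, and the cells were left 5 days without changing medium. One step fixed, permeabilised and stained them with Hoechst, and MetaXpress counted nuclei in 4× images. Viability, as a median over plates, is treated-well nuclei divided by vehicle-well nuclei, with acceptance only at control CV below 25% and at least one doubling.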

AT-7519 = compound: O=C(NC1CCNCC1)c1n[nH]cc1NC(=O)c1c(Cl)cccc1Cl [AT-7519]
Outline: as §1

[2] = compound: C1=CC2=C(C=C(C(=C2N=C1)O)N=NC3=CC4=C(C=C3)C=C(C=C4)S(=O)(=O)O)S(=O)(=O)O + Cc1nc(NC(=O)N2CCC[C@H]2C(N)=O)sc1-c1ccnc(C(C)(C)C(F)(F)F)c1 [Alpelisib] (partner 2 µM)
Outline: (§2)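 Lung cancer cell lines in 1536-well plates were dosed by pin tool the day after seeding, either with one drug alone or with a fixed anchor-drug dose plus five library-drug doses (not always all listed) in √10 steps. After 5 days, cells were fixed and their nuclei stained in one step (final 0.05% Triton X-100, 1% formaldehyde, 1 ug/ml Hoechst), then counted on 4× images. Relative viability is the nuclei count in treated wells divided by that in vehicle wells. Values are medians of duplicate plates.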

AT-7519 + Pemetrexed = compound: O=C(NC1CCNCC1)c1n[nH]cc1NC(=O)c1c(Cl)cccc1Cl [AT-7519] + Nc1nc2[nH]cc(CCc3ccc(C(=O)N[C@@H](CCC(=O)O)C(=O)O)cc3)c2c(=O)[nH]1 [Pemetrexed] (partner 0.2 µM)
Outline: as §2

Cell Line | relative viability ([1]; 0.08 µM) | relative viability ([1]; 0.253 µM) | relative viability ([1]; 0.8 µM) | relative viability ([1]; 2.53 µM) | relative viability ([1]; 8 µM) | relative viability (AT-7519; 0.01 µM) | relative viability (AT-7519; 0.03162 µM) | relative viability (AT-7519; 0.3162 µM) | relative viability (AT-7519; 1 µM) | relative viability ([2]; first compound 0.08 µM) | relative viability ([2]; first compound 0.253 µM) | relative viability ([2]; first compound 0.8 µM) | relative viability ([2]; first compound 2.53 µM) | relative viability ([2]; first compound 8 µM) | relative viability (AT-7519 + Pemetrexed; first compound 0.01 µM) | relative viability (AT-7519 + Pemetrexed; first compound 0.03162 µM) | relative viability (AT-7519 + Pemetrexed; first compound 0.3162 µM) | relative viability (AT-7519 + Pemetrexed; first compound 1 µM)
NCI-H1651 | 1.03 | 0.966 | 0.961 | 0.991 | 0.931 | 0.959 | 0.897 | 1.02 | 0.997 | 1.09 | 1.02 | 1.16 | 1.08 | 0.895 | 0.677 | 0.562 | 0.556 | 0.744
NCI-H1666 | 1.04 | 1.03 | 0.991 | 0.966 | 1.02 | 0.948 | 0.906 | 0.99 | 0.752 | 0.985 | 0.837 | 1.05 | 0.994 | 1.04 | 0.871 | 0.777 | 0.828 | 0.651
NCI-H1734 | 1.12 | 0.981 | 0.951 | 0.92 | 0.996 | 1.06 | 0.918 | 0.782 | 0.562 | 0.746 | 0.692 | 0.636 | 0.638 | 0.689 | 0.426 | 0.435 | 0.383 | 0.366
NCI-H1755 | 1.03 | 0.962 | 0.949 | 1.01 | 1.03 | 1.01 | 0.994 | 1.02 | 0.963 | 1.02 | 0.874 | 0.933 | 0.949 | 0.956 | 0.413 | 0.461 | 0.566 | 0.442
NCI-H1792 | 0.951 | 0.858 | 0.877 | 0.852 | 0.974 | 0.664 | 0.768 | 0.874 | 0.989 | 0.861 | 0.639 | 0.66 | 0.715 | 0.743 | 0.612 | 0.645 | 0.666 | 0.919
NCI-H1793 | 1.1 | 0.967 | 0.859 | 1.02 | 0.843 | 0.854 | 0.9 | 0.905 | 0.832 | 0.871 | 0.706 | – | 0.858 | 0.652 | 0.752 | 0.882 | 0.647 | 0.693
NCI-H1915 | 1.02 | 0.968 | 0.989 | 0.987 | 0.966 | 1.03 | 0.982 | 0.881 | 0.84 | 1.09 | 1.05 | 1.08 | 1.09 | 1.06 | 0.5 | 0.494 | 0.516 | 0.501
NCI-H1944 | 1.03 | 0.901 | 0.944 | 0.955 | 0.835 | 0.909 | 0.898 | 0.921 | 0.87 | 0.842 | 0.718 | 0.832 | 0.858 | 0.838 | 0.633 | 0.593 | 0.602 | 0.511
NCI-H1975 | 1.01 | 0.948 | 0.989 | 1.01 | 0.924 | 1.04 | 0.849 | 0.879 | 0.442 | 0.741 | 0.653 | 0.603 | 0.645 | 0.649 | 0.304 | 0.302 | 0.306 | 0.181
NCI-H1993 | 1.08 | 0.965 | 0.875 | 0.955 | 0.944 | 0.857 | 0.855 | 0.776 | 0.528 | 0.71 | 0.682 | 0.747 | 0.705 | 0.701 | 0.536 | 0.581 | 0.522 | 0.532
NCI-H2009 | 1.02 | 0.987 | 1.03 | 1.01 | 0.922 | 1.06 | 0.969 | 1.02 | 0.78 | 1.19 | 1.05 | 1.1 | 1.16 | 1.1 | 1.11 | 0.932 | 1.08 | 0.869
NCI-H2023 | 1.02 | 0.903 | 0.987 | 1.1 | 0.989 | 1.06 | 0.873 | 0.848 | 0.547 | 0.606 | 0.671 | 0.636 | 0.564 | 0.624 | 0.203 | 0.233 | 0.203 | 0.111
NCI-H2085 | 1.1 | 0.997 | 0.946 | 1.04 | 1.03 | 1.01 | 1 | 1.01 | 1.01 | 1.08 | 0.989 | 1.05 | 1 | 0.913 | 0.924 | 1.01 | 0.901 | 0.986
NCI-H2087 | 0.942 | 0.999 | 0.941 | 0.934 | 0.869 | 1.03 | 0.874 | 0.991 | 0.4 | 0.938 | 0.888 | 1.08 | 0.977 | 0.989 | 0.612 | 0.536 | 0.568 | 0.344
NCI-H2126 | 1.05 | 0.996 | 0.908 | 1.04 | 0.964 | 1.01 | 1 | 0.94 | 0.875 | 0.834 | 0.738 | 0.779 | 0.724 | 0.768 | 0.711 | 0.745 | 0.689 | 0.576
NCI-H2170 | 1.07 | 0.988 | 0.97 | 1.02 | 0.932 | 0.967 | 0.964 | 1.02 | 0.991 | 0.872 | 0.802 | 0.78 | 0.82 | 0.76 | 0.263 | 0.276 | 0.241 | 0.25
NCI-H2228 | 1.31 | 1.03 | 0.907 | 1.01 | 0.957 | 1.15 | 0.926 | 0.936 | 0.591 | 0.687 | 0.787 | 0.778 | 0.655 | 0.695 | 0.404 | 0.395 | 0.313 | 0.265
NCI-H2347 | 1.06 | 0.941 | 0.974 | 1.02 | 0.98 | 1.05 | 0.958 | 1.01 | 0.762 | 1.03 | 0.995 | 1.07 | 1.07 | 1.06 | 0.462 | 0.367 | 0.398 | 0.453

Reference: the supplement of paper PMC10307832
